Format in all cases: binding
The target in assay [1] is T1, C3R/C86S S100A4 (Homo sapiens, UniProt P26447, C3R/C86S). The assay can be described thus: competitive fluorescence anisotropy against FITC-MIIA. (In fluorescence polarisation assays a small probe gives low polarisation when free and higher when bound to something large.)
In assay [2] the target is T2, S100A4 (Homo sapiens, UniProt P26447). The assay can be described thus: LC-ESI MS of covalent adducts.
In assay [3] the target is T2, S100A4. Put plainly: competitive fluorescence anisotropy against FITC-MIIA.
The target in assay [4] is T1, C3R/C86S S100A4. The assay is described as above. This is another data set of the same source.

Where two headings read alike, the source gives them in different places.

This passage reports IC50 results from publication PMC3220277 (2011).

As a reminder, the IC50 is the concentration that gives 50% inhibition.

T1 sequence (P26447 2-101 C3R/C86S, one chain of several): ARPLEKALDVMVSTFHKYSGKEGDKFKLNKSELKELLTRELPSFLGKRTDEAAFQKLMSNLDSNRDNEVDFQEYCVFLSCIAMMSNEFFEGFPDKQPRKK
T2 sequence (P26447 2-101, one chain of several): as the sequence (P26447 2-101 C3R/C86S, one chain of several) above, with R2C, S85C counted along it

Regarding `O=C1C(SCCO)=C(SCCO)C(=O)c2ccccc21` [NSC 95397, 2,3-bis[2-hydroxyethylsulfanyl]-1,4-naphthoquinone], the results for the IC50 on C3R/C86S S100A4 [1] and on S100A4 [2] were 5.7 ± 0.5 µM and 1.8 ± 0.6 µM, respectively.

`CC1=C(SCCO)C(=O)c2ccccc2C1=O` [NSC 672121, 2-(2-hydroxyethylsulfanyl)-3-methylnaphthalene-1,4-dione]: the IC50 at S100A4 [3] was 2.7 ± 0.7 µM; at C3R/C86S S100A4 [4], 5.3 ± 0.6 µM.
